Test results from US9260756B2, “Esophageal microRNA expression profiles in eosinophilic esophagitis” (CHILDREN'S HOSPITAL MEDICAL CENTER, priority 2012, dated 2016).

Legend:
miR-375 = assay: qRT-PCR of miR-375 in esophageal biopsies of EE patients; type: in vivo, human; conditions: EE patients that responded to therapy, qPCR normalized to U6
Source text: Patients were selected without regard to age, race, or sex. Normal patients presented to the clinic with symptoms consistent with gastroesophageal reflux disease or EE, but the endoscopic and histologic findings for these patients were normal. […] The active chronic esophagitis patients had eosinophil counts of 1-15 per 400×hpf in the esophageal biopsies. Patients with systemic or swallowed topical glucocorticoid use were excluded from the selection of active EE or active chronic esophagitis patients.
Levels of miRNA expression were measured quantitatively by using the TaqMan MicroRNA Assays (Applied Biosystems), following the manufacturer's protocol. The expression levels were normalized to the U6 endogenous control. Relative expression was calculated as previously described (Lu, T. et al. J. Immunol. 182:4994-5002 (2009)).

IGF1R = molecular target: T1, IGF1R (Mus musculus, UniProt Q60751); assay: IGF1R expression by western blot after picropodophyllin treatment; type: cell-based; conditions: day 10, after 2-day treatment with 2 μM picropodophyllin, both miR-223+/+ and miR-223-/- cultures
T1 construct: endogenous in cells; host or cells: bone marrow-derived eosinophil (progenitor) cultures from miR-223+/+ and miR-223-/- mice
Procedure: Cells were rapidly washed in phosphate buffered saline and lysed in M-PER mammalian protein extraction reagent (Pierce, Rockford, Ill.), according to the manufacturer's protocol. Protease inhibitor cocktails (Pierce) and phosphatase inhibitor cocktails (Pierce) were added to the M-PER protein extraction reagent immediately before lysis. Western blot analysis was performed, as described in a previous protocol (Lim, E. et al. J. Biol. Chem. 286:13193-204 (2011)). The assay was conducted using an anti-IGF1R antibody (Cell Signaling Technology, Danvers, Mass.) and an anti-GAPDH antibody (Abcam, Cambridge, UK).
(§1) Bone marrow-derived eosinophils were re-suspended at a concentration of 1×10^6 cells/ml and treated with DMSO or 2 μM of picropodophyllin at day 8 (Yin, S. et al. Neuro. Oncol. 12:19-27 (2010)). Cell growth was determined by cell counting using a hemacytometer on day 10 and day 12. Cell lysates were collected on day 10, and levels of IGF1R expression were determined by western blot.

[1] = test system: bone marrow-derived eosinophils; assay: Cell growth after picropodophyllin treatment, cell counting using a hemacytometer; type: cell-based, mouse; conditions: for growth of miR-223+/+ and miR-223-/- eosinophil cultures: 2 μM picropodophyllin from day 8, counted day 10 and day 12, vs DMSO
Procedure: Bone marrow cells were collected from femurs and tibia of the mice, and the stem/progenitor cell-enriched low-density fraction was isolated by gradient centrifugation using the Histopaque 1083 (Sigma), according to the manufacturer's protocol. The low density fraction of bone marrow cells were cultured in IMDM with 10% FBS, 100 U/ml penicillin, and 100 μg/ml streptomycin supplemented with 100 ng/mL stem cell factor and 100 ng/mL FLT-3 ligand (Peprotech) from day 0 to day 4.
The stem cell factor and FLT-3 ligand were replaced with 10 ng/mL IL-5 on day 4, and the cells were cultured for an additional 10-12 days in the presence of IL-5 (Dyer, K. et al. J. Immunol. 181:4004-9 (2008)). The culture media was changed every other day, and cells were counted and concentration was adjusted to 1×10^6/mL during each media change. Eosinophil maturity was assessed by FACS staining for CCR3 and Siglec-F and/or Diff-Quik (Fisher Scientific) staining of cytospin preparations. Eosinophil progenitor growth was assessed by counting the cells every 2 days using a hemacytometer.
as §1

[2] = test system: human esophageal epithelial cells; assay: miRNA expression in IL-13-stimulated human esophageal epithelial cells (microarray, qPCR); type: cell-based; conditions: after 24 and 48 hours of IL-13 stimulation, normalized to U6
Procedure: (§2) Human esophageal epithelial cells derived from human patient biopsies were cultured, as described in a previous protocol (Blanchard, C. et al. J. Allergy Clin. Immunol. 120:1292-300 (2007)). The human bronchial epithelial cell line HBEC was cultured as previously described (Ramirez, R. et al. Cancer Res. 64:9027-34 (2004)). The normal human bronchial epithelial cells (Lonza, Basel, Switzerland) were cultured, as described in a previous protocol (Kariyawasam, H. et al. J. Allergy Clin. Immunol. 124:454-462 (2009)). The U937 monocytes and Jurkat T cells were cultured in RPMI 1640 medium (Fisher Scientific) supplemented with 10% FBS, 100 U/mL penicillin, and 100 μg/ml streptomycin. […]
(§3) Human esophageal epithelial cells and bronchial epithelial cells were stimulated with media or 100 ng/mL IL-13 for 24 hours. […] RNA quality was assessed using the 2100 bioanalyzer (Agilent Technologies), and only samples with RNA integrity number >8 were used. […]
(§4) The miRNAs differentially regulated between unstimulated and IL-13 stimulated samples were identified by normalizing the expression data to the average of two endogenous control probes, namely RNU44 and RNU48, then filtered on cycle threshold values <35 and at least a 2-fold change between unstimulated and IL-13-stimulated samples. Statistical significance was determined at p<0.05 with Benjamini Hochberg false discovery rate correction. […]

[3] = test system: human bronchial epithelial cells; assay: miRNA expression in IL-13-stimulated human bronchial epithelial cells (microarray, qPCR); type: cell-based; conditions: normal human bronchial epithelial cells, after 24 and 48 hours of IL-13 stimulation, normalized to U6
Procedure: as §2, §3, §4

T1 sequence (Q60751 31-1373): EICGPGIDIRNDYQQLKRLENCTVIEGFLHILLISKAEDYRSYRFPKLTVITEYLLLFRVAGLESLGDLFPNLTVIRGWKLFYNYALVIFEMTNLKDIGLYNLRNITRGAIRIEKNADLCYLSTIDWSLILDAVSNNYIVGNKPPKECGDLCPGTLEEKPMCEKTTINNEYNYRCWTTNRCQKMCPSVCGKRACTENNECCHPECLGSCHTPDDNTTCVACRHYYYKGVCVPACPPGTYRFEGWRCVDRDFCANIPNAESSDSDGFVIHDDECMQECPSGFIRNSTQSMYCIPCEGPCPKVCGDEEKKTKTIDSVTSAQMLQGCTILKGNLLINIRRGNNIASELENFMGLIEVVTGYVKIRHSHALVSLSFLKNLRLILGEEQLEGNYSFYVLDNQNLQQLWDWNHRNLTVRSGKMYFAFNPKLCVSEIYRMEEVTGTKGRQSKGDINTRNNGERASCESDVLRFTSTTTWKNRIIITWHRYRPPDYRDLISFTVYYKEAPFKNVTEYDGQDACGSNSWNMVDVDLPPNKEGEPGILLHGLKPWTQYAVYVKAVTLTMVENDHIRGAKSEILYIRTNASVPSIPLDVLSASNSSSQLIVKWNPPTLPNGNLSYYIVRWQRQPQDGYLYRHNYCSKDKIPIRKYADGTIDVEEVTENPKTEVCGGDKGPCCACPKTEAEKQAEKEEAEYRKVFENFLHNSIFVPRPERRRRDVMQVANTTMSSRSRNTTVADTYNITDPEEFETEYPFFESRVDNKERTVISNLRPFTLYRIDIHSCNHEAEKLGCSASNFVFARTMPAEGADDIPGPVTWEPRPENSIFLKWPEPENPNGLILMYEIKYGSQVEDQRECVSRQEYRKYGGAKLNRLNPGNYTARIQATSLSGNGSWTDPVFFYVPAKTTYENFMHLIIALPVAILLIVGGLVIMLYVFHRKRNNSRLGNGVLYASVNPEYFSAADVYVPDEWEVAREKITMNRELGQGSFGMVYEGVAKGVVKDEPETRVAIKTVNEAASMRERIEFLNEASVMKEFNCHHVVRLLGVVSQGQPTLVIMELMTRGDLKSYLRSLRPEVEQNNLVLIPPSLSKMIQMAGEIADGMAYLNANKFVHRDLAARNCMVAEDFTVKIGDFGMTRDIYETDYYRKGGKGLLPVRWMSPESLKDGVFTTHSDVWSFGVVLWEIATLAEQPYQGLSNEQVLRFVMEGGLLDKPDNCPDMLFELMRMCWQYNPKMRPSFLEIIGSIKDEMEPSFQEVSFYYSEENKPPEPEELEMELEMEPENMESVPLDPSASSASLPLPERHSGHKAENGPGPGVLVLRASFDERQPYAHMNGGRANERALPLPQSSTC

Which “miR-375 levels in esophageal tissue” value (miR-375) does the source give for `CCC(=O)O[C@]1(C(=O)SCF)[C@H](C)C[C@H]2[C@@H]3C[C@H](F)C4=CC(=O)C=C[C@]4(C)[C@@]3(F)[C@@H](O)C[C@@]21C` [fluticasone propionate] here?
The value was “comparable to normal healthy controls”.

With `COc1cc([C@@H]2c3cc4c(cc3[C@H](O)[C@H]3COC(=O)[C@@H]23)OCO4)cc(OC)c1OC` [picropodophyllin] as the compound, how does the “IGF1 receptor expression level” value (IGF1R) read?
Its value is “nearly complete down-regulation”.

What about the “growth of miR-223+/+ and miR-223-/- eosinophil cultures” value [1] of the same compound?
The value was “inhibited”.

What about the “growth of miR-223+/+ and miR-223-/- eosinophil cultures” value ([1]; listed as pricopodphyllin) of the same compound?
The value was “inhibits”.

What about the “increased proliferation seen in miR-223-/- cultures” value ([1]; 2 μM picropodophyllin, miR-223-/- vs miR-223+/+ cultures) of the same compound?
The value was “completely reversing”.

Which miR-375 expression [2] does the source give for “IL-13: cytokine used at 100 ng/mL to stimulate human esophageal and bronchial epithelial cells” here?
The miR-375 expression was “down-regulated”.

What about the miR-375 expression [3] of the same compound?
The miR-375 expression was “down-regulated”.
